Data set [1] is described as follows: Fold resistance, ratio of EC50 for antiviral activity against drug-resistant HIV-1 L100I mutant infected in human MT4 cells to EC50 for antiviral activity against […] HIV-1 infected in human MT4 cells. It is filed as functional.
In data set [2] the test system is Human immunodeficiency virus 1. The data set can be described thus: Antiviral activity against drug-resistant HIV-1 L100I mutant infected in human MT4 cells assessed as reduction in virus-induced cytopathic effect incubated for 5 days by MTT assay. It is filed as functional, organism-based. The following applies: Human immunodeficiency virus 1, L100I mutant, MT4, 120 h. (In general: Cytopathic effects are the visible damage that an infection or toxin causes in cultured cells.)

Data set [3] in a line: Fold resistance, ratio of EC50 for antiviral activity against drug-resistant HIV-1 Y188L mutant infected in human MT4 cells to EC50 for antiviral activity against […] HIV-1 infected in human MT4 cells. It is filed as functional.
The test system of data set [4] is Human immunodeficiency virus 1. The data set can be described thus: Antiviral activity against […] HIV-1 infected in human MT4 cells assessed as reduction in virus-induced cytopathic effect incubated for 5 days by MTT assay. It is filed as functional, organism-based. As to conditions: Human immunodeficiency virus 1, MT4, 120 h.
In data set [5] the test system is Human immunodeficiency virus 1. Put plainly: Antiviral activity against drug-resistant HIV-1 Y181C mutant infected in human MT4 cells assessed as reduction in virus-induced cytopathic effect incubated for 5 days by MTT assay. It is filed as functional, organism-based. The following applies: Human immunodeficiency virus 1, Y181C mutant, MT4, 120 h.
Data set [6] concerns Human immunodeficiency virus 1. The data set can be described thus: Antiviral activity against drug-resistant HIV-1 K103 N mutant infected in human MT4 cells assessed as reduction in virus-induced cytopathic effect incubated for 5 days by MTT assay. It is filed as functional, organism-based. As to conditions: Human immunodeficiency virus 1, K103 N mutant, MT4, 120 h.
Data set [7] concerns Human immunodeficiency virus 1. The data set can be described thus: Antiviral activity against drug-resistant HIV-1 E138K mutant infected in human MT4 cells assessed as reduction in virus-induced cytopathic effect incubated for 5 days by MTT assay. It is filed as functional, organism-based. As to conditions: Human immunodeficiency virus 1, E138K mutant, MT4, 120 h.
The nature of data set [8]: Fold resistance, ratio of EC50 for antiviral activity against drug-resistant HIV-1 K103 N mutant infected in human MT4 cells to EC50 for antiviral activity against […] HIV-1 infected in human MT4 cells. It is filed as functional.
The test system of data set [9] is Human immunodeficiency virus 1. Put plainly: Antiviral activity against drug-resistant HIV-1 Y188L mutant infected in human MT4 cells assessed as reduction in virus-induced cytopathic effect incubated for 5 days by MTT assay. It is filed as functional, organism-based. The following applies: Human immunodeficiency virus 1, Y188L mutant, MT4, 120 h.
A short description of data set [10]: Cytotoxicity against human MT4 cells assessed as cell growth inhibition incubated for 5 days by MTT assay. It is filed as toxicity, cell-based. As to conditions: time 5 day. On the technique in general: Tetrazolium dyes change colour on reduction, which living cells bring about.
Data set [11] in a line: Fold resistance, ratio of EC50 for antiviral activity against drug-resistant HIV-1 E138K mutant infected in human MT4 cells to EC50 for antiviral activity against […] HIV-1 infected in human MT4 cells. It is filed as functional.
The nature of data set [12]: Selectivity index, ratio of CC50 for human MT4 cells to EC50 for antiviral activity against NNRTI resistant HIV-1 infected in human MT4 cells. The following applies: read-out: Ratio CC50/EC50. It is filed as toxicity, cell-based.
Data set [13] is described as follows: Fold resistance, ratio of EC50 for antiviral activity against drug-resistant HIV-1 Y181C mutant infected in human MT4 cells to EC50 for antiviral activity against […] HIV-1 infected in human MT4 cells. It is filed as functional.
The target of data set [14] is Human immunodeficiency virus type 1 reverse transcriptase (Human immunodeficiency virus 1, UniProt Q72547). The data set can be described thus: Inhibition of recombinant wild-type p66/p51 HIV-1 reverse transcriptase incubated for 40 mins by picogreen dye-based spectrofluorometric analysis.

Where only a bound is given, the exact number is not on record here.

As a reminder, the EC50 is the concentration giving half of the maximal effect. By CC50 is commonly meant the concentration giving 50% cytotoxicity. By IC50 is commonly meant the point on the concentration scale where inhibition reaches its midpoint.

As for `Cc1c(C(C#N)c2c(F)cccc2Cl)nc(SC(C)C)[nH]c1=O` (stereo unspecified), the “Ratio EC50” value in data set [1] is listed as 58; in data set [3], 3191; in data set [8], 179; in data set [11], 5; in data set [13] it was 76. The EC50 was 1.06 µM in [2]; 0.0184 µM in [4]; 1.4 µM in data set [5]; 3.3 µM in data set [6]; 0.09 µM in data set [7]; over 58.7 µM in [9]. Besides, the CC50 at 120 h in [10] came to 74.7 µM. The selectivity ratio in data set [12] was found to be 4050. For the same compound, in data set [14], the IC50 stood at 0.074 µM.
As for `Cc1c(C(C#N)c2cc(Cl)cc(C(F)(F)F)c2)nc(SC(C)C)[nH]c1=O` (stereo unspecified), the “Ratio EC50” value in [1] was over 6; in data set [3], over 6; in data set [8], over 6; in [11], 3; in data set [13] it was over 6. Moreover, the EC50 is over 23.1 µM in [2]; 4.17 µM in data set [4]; over 23.1 µM in data set [5]; over 23.1 µM in [6]; 10.9 µM in [7]; over 23.1 µM in data set [9]. The CC50 at 120 h in data set [10] is 23.1 µM. In data set [12], the selectivity ratio was determined as 6. In [14], the IC50 came to 3.52 µM.
With `Cc1c(C(C#N)c2ccccc2Br)nc(SC(C)C)[nH]c1=O` (stereo unspecified), the “Ratio EC50” value is listed as 17 in [1]; 469 in [3]; 246 in data set [8]; 2 in [11]; 46 in data set [13]. Moreover, the EC50 turned out to be 2 µM in [2]; 0.115 µM in data set [4]; 5.28 µM in data set [5]; 28.2 µM in [6]; 0.2 µM in [7]; 54 µM in [9]. The CC50 at 120 h in data set [10] was found to be 77.6 µM. For the same compound, the selectivity ratio in data set [12] came to 676. In addition, the IC50 in [14] stood at 0.198 µM.
Turning to `Cc1c(C(C#N)c2ccc(Cl)nc2)nc(SC(C)C)[nH]c1=O` (stereo unspecified), the “Ratio EC50” value in [1] was 2; in [3] it was over 10; in data set [8] it was 2; in data set [11], 1; in [13], 2. The EC50 in [2] was 32.3 µM; in [4] it was 20.6 µM; in data set [5] it was 41.3 µM; in data set [6] it was 41.3 µM; in data set [7] it was 28.6 µM; in data set [9], over 216 µM. Besides, in [10], the CC50 at 120 h is 216 µM. Moreover, the selectivity ratio in data set [12] came to 10. The half-maximal inhibitory concentration (IC50) in data set [14] was determined as 203 µM.
As to `Cc1c(C(C#N)c2cccc(C(F)(F)F)c2)nc(SC(C)C)[nH]c1=O` (stereo unspecified), the “Ratio EC50” value in [1] is 11; in [3], over 65; in [8], over 57; in data set [11], 3; in data set [13] it was 9. The EC50 in data set [2] was 12.1 µM; in data set [4] it was 1.06 µM; in data set [5], 9.98 µM; in data set [6], over 60.4 µM; in data set [7] it was 2.71 µM; in data set [9] it was over 69.2 µM. For the same compound, the CC50 at 120 h in data set [10] stood at 69.2 µM. For the same compound, the selectivity ratio in [12] amounted to 65. The IC50 in data set [14] amounted to 2.71 µM.
On to `Cc1c(C(C#N)c2ccc(C(F)(F)F)cc2)nc(SC(C)C)[nH]c1=O` (stereo unspecified), for which the “Ratio EC50” value in data set [1] is listed as over 8; in data set [3], over 8; in data set [8] it was over 8; in [11] it was 2; in data set [13], over 8. Further, the EC50 was over 39.8 µM in data set [2]; 5.3 µM in data set [4]; over 39.8 µM in data set [5]; over 39.8 µM in data set [6]; 9.11 µM in data set [7]; over 39.8 µM in data set [9]. The CC50 at 120 h in data set [10] was determined as 39.8 µM. Further, the selectivity ratio in [12] is 8. For the same compound, in data set [14], the half-inhibitory concentration (IC50) worked out at 13.3 µM.
Turning to `COc1cccc(C(C#N)c2nc(SC(C)C)[nH]c(=O)c2C)c1` (stereo unspecified), the “Ratio EC50” value was 20 in data set [1]; 450 in data set [3]; 205 in data set [8]; 3 in [11]; 42 in data set [13]. Also, the EC50 came out at 2.78 µM in [2]; 0.138 µM in data set [4]; 5.82 µM in data set [5]; 28.2 µM in [6]; 0.36 µM in data set [7]; 62 µM in data set [9]. Also, the CC50 at 120 h in [10] was 176 µM. Also, in data set [12], the selectivity ratio stood at 1280. Further, in data set [14], the IC50 is 1.06 µM.
In the case of `Cc1c(C(C#N)c2ccc(C(C)C)cc2)nc(SC(C)C)[nH]c1=O` (stereo unspecified), the “Ratio EC50” value in data set [1] was 9; in data set [3], over 375; in data set [8] it was over 375; in [11], 3; in data set [13], 17. Besides, the EC50 in data set [2] was 5.51 µM; in [4], 0.6 µM; in [5], 10.2 µM; in data set [6], over 225 µM; in [7], 1.5 µM; in data set [9] it was over 225 µM. Also, the CC50 at 120 h in data set [10] stood at 225 µM. The selectivity ratio in [12] was 376. For the same compound, in [14], the IC50 came out at 2.15 µM.
With `Cc1ccccc1C(C#N)c1nc(SC(C)C)[nH]c(=O)c1C` (stereo unspecified), the “Ratio EC50” value was 28 in data set [1]; 546 in data set [3]; 416 in [8]; 2 in [11]; 48 in [13]. The EC50 was found to be 3.23 µM in data set [2]; 0.116 µM in data set [4]; 5.52 µM in [5]; 48.2 µM in data set [6]; 0.26 µM in [7]; 63.4 µM in data set [9]. For the same compound, the CC50 at 120 h in data set [10] was found to be 111 µM. Besides, in data set [12], the selectivity ratio was determined as 960. For the same compound, the IC50 in data set [14] was 0.68 µM.
For the compound `O=C1Nc2ccc(Cl)cc2[C@@](C#CC2CC2)(C(F)(F)F)O1` [EFAVIRENZ], the EC50 in [2] was 0.0371 µM; in data set [5] it was 0.0071 µM; in data set [6], 0.0942 µM; in [7] it was 0.0062 µM; in data set [9], 0.205 µM.
On to `Cc1ccnc2c1NC(=O)c1cccnc1N2C1CC1` [NEVIRAPINE], for which the concentration for a half-maximal effect (EC50) is 2.57 µM in data set [2]; 0.17 µM in data set [4]; 7.71 µM in data set [5]; 8.1 µM in [6]; 0.198 µM in [7]; over 15 µM in data set [9].
As to `Cc1cc(C#N)cc(C)c1Oc1nc(Nc2ccc(C#N)cc2)nc(N)c1Br` [ETRAVIRINE], the “Ratio EC50” value in data set [1] was 4; in [3], 7; in [8] it was 1; in [11], 3; in data set [13] it was 6. The EC50 in [2] came out at 0.0115 µM; in data set [5], 0.0162 µM; in [6] it was 0.0034 µM; in [7] it was 0.0092 µM. The CC50 at 120 h in data set [10] was found to be 4.6 µM. In addition, the selectivity ratio in data set [12] is over 1620.
Take `Cc1cn([C@H]2C[C@H](N=[N+]=[N-])[C@@H](CO)O2)c(=O)[nH]c1=O` [ZIDOVUDINE]: the “Ratio EC50” value in data set [1] turned out to be 0.4; in [3], 0.5; in data set [8], 1; in data set [11] it was 1; in data set [13] it was 1. For the same compound, the EC50 in data set [2] was 0.0084 µM; in [4] it was 0.0229 µM; in [5], 0.0242 µM; in data set [6], 0.0287 µM; in [7], 0.0268 µM; in data set [9] it was 0.0108 µM. For the same compound, the selectivity ratio in data set [12] is over 309.
As to `Cc1c(C(C#N)c2ccc(-c3ccccc3)cc2)nc(SC(C)C)[nH]c1=O` (stereo unspecified), the EC50 in [4] is over 30.5 µM. For the same compound, in data set [10], the CC50 at 120 h is 30.5 µM. Besides, the selectivity ratio in data set [12] was under 1.
On to `Cc1c(C(C#N)c2cc(C(F)(F)F)cc(C(F)(F)F)c2)nc(SC(C)C)[nH]c1=O` (stereo unspecified), for which the “Ratio EC50” value in data set [1] was over 10; in data set [3], over 10; in data set [8], over 10; in data set [11], 8; in data set [13], 7. The EC50 was over 278 µM in [2]; 27.4 µM in data set [4]; 186 µM in [5]; over 287 µM in data set [6]; 224 µM in [7]; over 287 µM in [9]. Further, the cytotoxic concentration (CC50) at 120 h in data set [10] worked out at 287 µM. Besides, in data set [14], the IC50 worked out at 55.1 µM.

The record behind these values is ChEMBL document CHEMBL5137044, “Expansion of the S-CN-DABO scaffold to exploit the impact on inhibitory activities against the non-nucleoside HIV-1 reverse transcriptase” (Eur J Med Chem, 2022).
